The numbers were not newly measured in paper PMC3326647, “Single Enantiomer of YK-4-279 Demonstrates Specificity in Targeting the Oncogene EWS-FLI1” (Oncotarget, 2012), which cites them from elsewhere.

Data set [1] relates to non-transformed cell lines. Set-up: method as in PMID 19584866. To be noted: racemic; cited from earlier work.
Details of data set [2]: method as in PMID 19584866. The settings on record: xenograft mice, 75 mg per kg body weight; cited from earlier work.

One may read the IC50 as the concentration that inhibits the measured activity by half. Consider `COc1ccc(C(=O)CC2(O)C(=O)Nc3c(Cl)ccc(Cl)c32)cc1` (centres unmarked) [YK-4-279], for which the IC50 in data set [1] was > 30 µM. Further, in data set [2], the toxicity result is recorded as “no toxicity”.
